Assay results as given in patent publication US20150291610A1, “C20' Urea Derivatives of Vinca Alkaloids” (THE SCRIPPS RESEARCH INSTITUTE, priority 2012, published 2015).
Where two headings read alike, the source gives them in different places.

Legend:
[1] = tested on: L1210 (mouse lymphocytic leukemia) cells; test: Cell growth inhibition assay, L1210; type: cell-based; conditions: L1210 murine leukemia cell line; avg of 4-16 determinations
Procedure: (§1) A population of cells (>1×10^6 cells/mL as determined with a hemocytometer) was diluted with an appropriate amount of Dulbecco-modified Eagle Medium (DMEM, Gibco) containing 10% fetal bovine serum (FBS, Gibco) to a final concentration of 30,000 cells/mL.
(§2) To each well of a 96-well plate (Corning Costar), 100 μL of the cell-media solution was added with a multichannel pipette. The cultures were incubated at 37° C. in an atmosphere of 5% CO2 and 95% humidified air for 24 hours. The test compounds were added to the plate as follows: test substances were diluted in DMSO to a concentration of 1 mM and 10-fold serial dilutions were performed on a separate 96-well plate. Fresh culture medium (100 μL) was added to each well of cells to constitute 200 μL of medium per well followed by 2 μL of each test agent. Compounds were tested in duplicate (n=2-8 times) at six concentrations between 0-1,000 nM or 0-10,000 nM. Following addition, cultures were incubated for an additional 72 hours.
(§3) The plates were incubated at 37° C. for either 5 minutes (L1210) or 15 minutes (HCT116 and HCT116/VM46).

[2] = tested on: HCT116 (human colorectal carcinoma) cells; test: Cell growth inhibition assay, HCT116; type: cell-based
Procedure: as §1, §2, §3

[3] = tested on: HCT116/VM46 (vinblastine-resistant strain of HCT116, Pgp over-expression) cells; test: Cell growth inhibition assay, HCT116/VM46; conditions: for activity difference between sensitive HCT116 and vinblastine-resistant HCT116/VM46: HCT116/VM46 vs HCT116; for IC50: read-out: IC50 (nM) HCT116/VM46, resistant human colon cancer cell line, Pgp over-expression; for fold improvement over vinblastine, HCT116/VM46: relative to vinblastine
Procedure: as §1, §2, §3

[4] = HCT116 human colon cancer cell line, avg of 4-16 determinations, read-out: IC50 (nM) HCT116

Q: Which IC50 [1] does the source give for `CC[C@]1(NC(=O)N2CCCCC2)C[C@@H]2CN(CCc3c([nH]c4ccccc34)[C@@](C(=O)OC)(c3cc4c(cc3OC)N(C)[C@H]3[C@@](O)(C(=O)OC)[C@H](OC(C)=O)[C@]5(CC)C=CCN6CC[C@]43[C@@H]65)C2)C1` [Compound 42] here?
A: The IC50 was 5.5 nM.

Q: What about the IC50 [2, 4] of the same molecule?
A: Its IC50 is 3.9 nM.

Q: What about the “activity difference between sensitive HCT116 and vinblastine-resistant HCT116/VM46” value [3] of the same molecule?
A: The value was 10 fold.

Q: What about the IC50 [3] of the same molecule?
A: The IC50 was 50 nM.

Q: Which “fold more potent than vinblastine, HCT116” value ([2]; relative to vinblastine) does the source give for `CCNC(=O)NC1(CC)CC2CN(CCc3c([nH]c4ccc(F)cc34)C(C(=O)OC)(c3cc4c(cc3OC)N(C)C3C(O)(C(=O)OC)C(OC(C)=O)C5(CC)C=CCN6CCC43C65)C2)C1` (centres unmarked) [Compound 49] here?
A: Its value is “at least 10 fold”.

Q: And the IC50 ([2]; text values in pM, read-out: IC50 HCT116)?
A: Its IC50 is 0.62 nM.

Q: And the IC50 [3]?
A: The IC50 was 70 nM.

Q: What about the “fold improvement over vinblastine, HCT116/VM46” value (shortened to “fold improvement”) [3] of the same molecule?
A: Its value is ~10 fold.

Q: What does the source list for `CCC1(NC(=S)Nc2ccccc2)CC2CN(CCc3c([nH]c4ccccc34)C(C(=O)OC)(c3cc4c(cc3OC)N(C)C3C(O)(C(=O)OC)C(OC(C)=O)C5(CC)C=CCN6CCC43C65)C2)C1` (centres unmarked) [Compound 37]?
A: IC50 [2, 4]: 40 nM; IC50 [3]: 650 nM

Q: Which IC50 [1] does the source give for `CC[C@]1(NC(=O)N2Cc3ccc(OC)cc3C2)C[C@@H]2CN(CCc3c([nH]c4ccccc34)[C@@](C(=O)OC)(c3cc4c(cc3OC)N(C)[C@H]3[C@@](O)(C(=O)OC)[C@H](OC(C)=O)[C@]5(CC)C=CCN6CC[C@]43[C@@H]65)C2)C1` [Compound 59] here?
A: Its IC50 is 0.61 nM.

Q: And the IC50 [2, 4]?
A: The IC50 was 0.69 nM.

Q: And the IC50 [3]?
A: Its IC50 is 8.7 nM.

Q: For `CC[C@]1(NC(=O)N2CCSCC2)C[C@@H]2CN(CCc3c([nH]c4ccccc34)[C@@](C(=O)OC)(c3cc4c(cc3OC)N(C)[C@H]3[C@@](O)(C(=O)OC)[C@H](OC(C)=O)[C@]5(CC)C=CCN6CC[C@]43[C@@H]65)C2)C1` [Compound 53], which IC50 [1] is on record?
A: Its IC50 is 2.1 nM.

Q: And the IC50 [2, 4]?
A: Its IC50 is 0.88 nM.

Q: And the IC50 [3]?
A: The IC50 was 50 nM.

Q: With `CC[C@]1(NC(=O)NC(C)(C)C)C[C@@H]2CN(CCc3c([nH]c4ccccc34)[C@@](C(=O)OC)(c3cc4c(cc3OC)N(C)[C@H]3[C@@](O)(C(=O)OC)[C@H](OC(C)=O)[C@]5(CC)C=CCN6CC[C@]43[C@@H]65)C2)C1` [Compound 20] as the molecule, how does the IC50 [1] read?
A: Its IC50 is 40 nM.

Q: And the IC50 [2, 4]?
A: Its IC50 is 20 nM.

Q: What about the IC50 [3] of the same molecule?
A: Its IC50 is 670 nM.

Q: For `CC[C@]1(NC(=O)NC2CC2)C[C@@H]2CN(CCc3c([nH]c4ccccc34)[C@@](C(=O)OC)(c3cc4c(cc3OC)N(C)[C@H]3[C@@](O)(C(=O)OC)[C@H](OC(C)=O)[C@]5(CC)C=CCN6CC[C@]43[C@@H]65)C2)C1` [Compound 18], which IC50 [1] is on record?
A: Its IC50 is 3.9 nM.

Q: And the IC50 [2, 4]?
A: Its IC50 is 0.73 nM.

Q: And the IC50 [3]?
A: The IC50 was 85 nM.

Q: What about the “fold improvement” value [3] of the same molecule?
A: The value was 10 fold.

Q: `CCC1(OC(=O)N(C)C)CC2CN(CCc3c([nH]c4ccccc34)C(C(=O)OC)(c3cc4c(cc3OC)N(C)C3C(O)(C(=O)OC)C(OC(C)=O)C5(CC)C=CCN6CCC43C65)C2)C1` (centres unmarked) [Compound 44] was tested. Which “fold less active than N,N-dimethyl urea or thiourea 39 and 43” value ([2]; HCT116) did it give?
A: Its value is > 1000 fold.

Q: And the IC50 [2, 4]?
A: The IC50 was 4700 nM.

Q: And the IC50 [3]?
A: Its IC50 is 9100 nM.

Q: How did the IC50 [1] turn out when `CC[C@]1(NC(=O)NCCO)C[C@@H]2CN(CCc3c([nH]c4ccccc34)[C@@](C(=O)OC)(c3cc4c(cc3OC)N(C)[C@H]3[C@@](O)(C(=O)OC)[C@H](OC(C)=O)[C@]5(CC)C=CCN6CC[C@]43[C@@H]65)C2)C1` [Compound 22] was run?
A: Its IC50 is 48 nM.

Q: And the IC50 [2, 4]?
A: Its IC50 is 8.8 nM.

Q: What about the IC50 [3] of the same molecule?
A: The IC50 was > 1000 nM.

Q: `CCNC(=O)N[C@@]1(CC)C[C@@H]2CN(CCc3c([nH]c4ccccc34)[C@@](C(=O)OC)(c3cc4c(cc3OC)N(C)[C@H]3[C@@](O)(C(=O)OC)[C@H](OC(C)=O)[C@]5(CC)C=CCN6CC[C@]43[C@@H]65)C2)C1` [Compound 15] was tested. Which IC50 [1] did it give?
A: The IC50 was 2.1 nM.

Q: What about the IC50 [2, 4] of the same molecule?
A: The IC50 was 0.73 nM.

Q: And the IC50 [3]?
A: Its IC50 is 90 nM.

Q: What about the “fold improvement” value [3] of the same molecule?
A: Its value is 10 fold.

Q: With `CCCCNC(=O)N[C@@]1(CC)C[C@@H]2CN(CCc3c([nH]c4ccccc34)[C@@](C(=O)OC)(c3cc4c(cc3OC)N(C)[C@H]3[C@@](O)(C(=O)OC)[C@H](OC(C)=O)[C@]5(CC)C=CCN6CC[C@]43[C@@H]65)C2)C1` [Compound 19] as the molecule, how does the IC50 [1] read?
A: The IC50 was 5.7 nM.

Q: And the IC50 [2, 4]?
A: The IC50 was 4.6 nM.

Q: What about the IC50 [3] of the same molecule?
A: Its IC50 is 270 nM.

Q: With `CCNC(=O)N(C)[C@@]1(CC)C[C@@H]2CN(CCc3c([nH]c4ccccc34)[C@@](C(=O)OC)(c3cc4c(cc3OC)N(C)[C@H]3[C@@](O)(C(=O)OC)[C@H](OC(C)=O)[C@]5(CC)C=CCN6CC[C@]43[C@@H]65)C2)C1` [Compound 47] as the molecule, how does the “fold decrease in activity between 15 and 47” value ([2]; HCT116) read?
A: Its value is 700 fold.

Q: What about the IC50 [2, 4] of the same molecule?
A: The IC50 was 520 nM.

Q: What about the IC50 [3] of the same molecule?
A: The IC50 was 8500 nM.

Q: What does the source list for `CC[C@]1(NC(=O)Nc2ccc(Cl)cc2)C[C@@H]2CN(CCc3c([nH]c4ccccc34)[C@@](C(=O)OC)(c3cc4c(cc3OC)N(C)[C@H]3[C@@](O)(C(=O)OC)[C@H](OC(C)=O)[C@]5(CC)C=CCN6CC[C@]43[C@@H]65)C2)C1` [Compound 25]?
A: IC50 [1]: 6.2 nM; IC50 [2, 4]: 6.7 nM; IC50 [3]: 590 nM

Q: How did the IC50 [2, 4] turn out when `CC[C@]1(NC(=S)NC2CCCCC2)C[C@@H]2CN(CCc3c([nH]c4ccccc34)[C@@](C(=O)OC)(c3cc4c(cc3OC)N(C)[C@H]3[C@@](O)(C(=O)OC)[C@H](OC(C)=O)[C@]5(CC)C=CCN6CC[C@]43[C@@H]65)C2)C1` [Compound 36] was run?
A: The IC50 was 20 nM.

Q: What about the IC50 [3] of the same molecule?
A: The IC50 was 520 nM.

Q: What does the source list for `CC[C@]12C=CCN3CC[C@@]4(c5cc([C@@]6(C(=O)OC)C[C@H]7CN(CCc8c6[nH]c6ccccc86)C[C@@](CC)(N(C)C)C7)c(OC)cc5N(C)[C@H]4[C@@](O)(C(=O)OC)[C@@H]1OC(C)=O)[C@@H]32` [Compound 46]?
A: IC50 [2, 4]: 980 nM; IC50 [3]: > 10000 nM

Q: With `CCC1(NC(=O)Nc2ccc(OC)cc2)CC2CN(CCc3c([nH]c4ccccc34)C(C(=O)OC)(c3cc4c(cc3OC)N(C)C3C(O)(C(=O)OC)C(OC(C)=O)C5(CC)C=CCN6CCC43C65)C2)C1` (centres unmarked) [Compound 28] as the molecule, how does the IC50 [1] read?
A: Its IC50 is 4.9 nM.

Q: And the IC50 [2, 4]?
A: The IC50 was 2 nM.

Q: And the IC50 [3]?
A: Its IC50 is 230 nM.

Q: Which IC50 [1] does the source give for `CC[C@]1(NC(=O)N2CCN(C)CC2)C[C@@H]2CN(CCc3c([nH]c4ccccc34)[C@@](C(=O)OC)(c3cc4c(cc3OC)N(C)[C@H]3[C@@](O)(C(=O)OC)[C@H](OC(C)=O)[C@]5(CC)C=CCN6CC[C@]43[C@@H]65)C2)C1` [Compound 54] here?
A: The IC50 was 7.7 nM.

Q: And the IC50 [2, 4]?
A: The IC50 was 3.4 nM.

Q: And the IC50 [3]?
A: The IC50 was 710 nM.

Q: What does the source list for `CC[C@]1(NC(=S)NCCc2ccc(F)cc2)C[C@@H]2CN(CCc3c([nH]c4ccccc34)[C@@](C(=O)OC)(c3cc4c(cc3OC)N(C)[C@H]3[C@@](O)(C(=O)OC)[C@H](OC(C)=O)[C@]5(CC)C=CCN6CC[C@]43[C@@H]65)C2)C1` [Compound 38]?
A: IC50 [2, 4]: 60 nM; IC50 [3]: 750 nM

Q: How did the IC50 [2, 4] turn out when `CC[C@]1(NC(=O)Oc2ccc([N+](=O)[O-])cc2)C[C@@H]2CN(CCc3c([nH]c4ccccc34)[C@@](C(=O)OC)(c3cc4c(cc3OC)N(C)[C@H]3[C@@](O)(C(=O)OC)[C@H](OC(C)=O)[C@]5(CC)C=CCN6CC[C@]43[C@@H]65)C2)C1` [Compound 13] was run?
A: The IC50 was 55 nM.

Q: Which IC50 [2, 4] does the source give for `CC[C@]1(NC)C[C@@H]2CN(CCc3c([nH]c4ccccc34)[C@@](C(=O)OC)(c3cc4c(cc3OC)N(C)[C@H]3[C@@](O)(C(=O)OC)[C@H](OC(C)=O)[C@]5(CC)C=CCN6CC[C@]43[C@@H]65)C2)C1` [Compound 45, 20′-(methylamino)vinblastine] here?
A: The IC50 was 60 nM.

Q: What about the IC50 [3] of the same molecule?
A: The IC50 was 8500 nM.

Q: `CCC1(NC(=S)N(C)C)CC2CN(CCc3c([nH]c4ccccc34)C(C(=O)OC)(c3cc4c(cc3OC)N(C)C3C(O)(C(=O)OC)C(OC(C)=O)C5(CC)C=CCN6CCC43C65)C2)C1` (centres unmarked) [Compound 43] was tested. Which IC50 [2, 4] did it give?
A: Its IC50 is 8.7 nM.

Q: What about the “activity difference between sensitive HCT116 and vinblastine-resistant HCT116/VM46” value [3] of the same molecule?
A: Its value is 10 fold.

Q: What about the IC50 [3] of the same molecule?
A: The IC50 was 250 nM.

Q: Which results are given for `CCN(CC)C(=O)N[C@@]1(CC)C[C@@H]2CN(CCc3c([nH]c4ccccc34)[C@@](C(=O)OC)(c3cc4c(cc3OC)N(C)[C@H]3[C@@](O)(C(=O)OC)[C@H](OC(C)=O)[C@]5(CC)C=CCN6CC[C@]43[C@@H]65)C2)C1` [Compound 40]?
A: IC50 [2, 4]: 6.7 nM; IC50 [3]: 450 nM
